The source of these data is ChEMBL document CHEMBL5257127, “SolS-catalyzed sulfoxidation of labionin to solabionin drives antibacterial activity of solabiomycins” (2023).

≈ marks a conversion by molar mass, not a printed value. Calls of active or inactive are those of the source. The rule behind the calls is not given here.

The test system of assay [1] is Micrococcus luteus. Kind of assay: Antibacterial activity against Micrococcus luteus assessed as bacterial growth inhibition at 20 nmol by paper disc diffusion assay. The class given is functional, organism-based.
Assay [2] relates to Mycolicibacterium smegmatis. Kind of assay: Antibacterial activity against Mycolicibacterium smegmatis assessed as bacterial growth inhibition by paper disc diffusion assay. It counts as functional.
Assay [3] concerns Streptomyces sp. Kind of assay: Antibacterial activity against Streptomyces sp. TP-A0584 assessed as bacterial growth inhibition at 20 nmol by paper disc diffusion assay. The class given is functional, organism-based.
The subject of assay [4] is Streptomyces sp. Kind of assay: Antibacterial activity against Streptomyces sp. assessed as bacterial growth inhibition at 20 nmol by paper disc diffusion assay. It counts as functional, organism-based.
For assay [5], the system named is Mycolicibacterium smegmatis. Kind of assay: Antibacterial activity against Mycolicibacterium smegmatis assessed as bacterial growth inhibition at 20 nmol by paper disc diffusion assay. The class given is functional, organism-based.
Assay [6] deals with Saccharomyces cerevisiae. Kind of assay: Antifungal activity against Saccharomyces cerevisiae assessed as fungal growth inhibition at 20 nmol by paper disc diffusion assay. It counts as functional, organism-based.
Assay [7] has as its system Escherichia coli. Kind of assay: Antibacterial activity against Escherichia coli assessed as bacterial growth inhibition at 20 nmol by paper disc diffusion assay. It counts as functional, organism-based.
Assay [8] relates to Streptomyces lydicus. Kind of assay: Antibacterial activity against Streptomyces lydicus assessed as bacterial growth inhibition at 20 nmol by paper disc diffusion assay. It counts as functional, organism-based.
Assay [9] concerns Staphylococcus aureus. Kind of assay: Antibacterial activity against Staphylococcus aureus assessed as bacterial growth inhibition by paper disc diffusion assay. The class given is functional.
Assay [10] deals with Staphylococcus aureus. Kind of assay: Antibacterial activity against Staphylococcus aureus assessed as bacterial growth inhibition at 20 nmol by paper disc diffusion assay. It counts as functional, organism-based.
Assay [11] deals with Streptomyces nigrescens. Kind of assay: Antibacterial activity against Streptomyces nigrescens HEK616 assessed as bacterial growth inhibition at 20 nmol by paper disc diffusion assay. The class given is functional, organism-based.
Assay [12] concerns Mycobacterium tuberculosis. Kind of assay: Antibacterial activity against Mycobacterium tuberculosis H37Rv assessed as bacterial growth inhibition. It counts as functional.
The test system of assay [13] is Micrococcus luteus. Kind of assay: Antibacterial activity against Micrococcus luteus assessed as bacterial growth inhibition by paper disc diffusion assay. It counts as functional.
Assay [14] relates to Escherichia coli. Kind of assay: Antibacterial activity against Escherichia coli RFM795 harboring lptD gene mutation assessed as bacterial growth inhibition at 20 nmol by paper disc diffusion assay. The class given is functional, organism-based.
The subject of assay [15] is Candida albicans. Kind of assay: Antifungal activity against Candida albicans assessed as fungal growth inhibition at 20 nmol by paper disc diffusion assay. The class given is functional, organism-based.

For `C/C=C1/NC(=O)C(NC(=O)CNC(=O)CCCCCCCCCCCCNC(=N)N)CC2(C[S+]([O-])CC(C(=O)O)NC(=O)CNC(=O)CNC2=O)NC(=O)[C@H]([C@@H](C)CC)NC1=O` (stereo not given in full), the result in assay [1], in [3], in [4], in [5], in [7] and in assay [10] was Active. The MIC turned out to be 6.4 µM (≈ 5.73 µg/mL) in assay [2], 12.8 µM (≈ 11.5 µg/mL) in assay [9], 0.35 µM (≈ 0.314 µg/mL) in assay [12] and 12.8 µM (≈ 11.5 µg/mL) in [13]. Moreover, the result in assay [6], in assay [8], in assay [11], in [14] and in assay [15] was inactive.
With `NC[C@H]1O[C@H](O[C@H]2[C@H](O)[C@@H](O[C@H]3O[C@H](CO)[C@@H](O)[C@H](N)[C@H]3O)[C@H](N)C[C@@H]2N)[C@H](O)[C@@H](O)[C@@H]1O` [KANAMYCIN], the MIC was determined as 1.6 µM (≈ 0.775 µg/mL) in assay [2], 0.2 µM (≈ 0.0969 µg/mL) in assay [9] and 12.8 µM (≈ 6.2 µg/mL) in assay [13].
In the case of `C/C=C1/NC(=O)C(NC(=O)CNC(=O)CCCCCCCCCCCCNC(=N)N)CC2(CSCC(C(=O)O)NC(=O)CNC(=O)CNC2=O)NC(=O)[C@H](C(C)C)NC1=O` (stereo not given in full), the outcome in [1], in assay [4], in assay [5], in assay [7] and in [10] was Active. Besides, the MIC in assay [2] amounted to 51.2 µM (≈ 44.3 µg/mL); in assay [9], 102 µM (≈ 88.7 µg/mL); in [13], 102 µM (≈ 88.7 µg/mL). In addition, the outcome in assay [8], in [11] and in [14] was inactive.
On to `C/C=C1/NC(=O)C(NC(=O)CNC(=O)CCCCCCCCCCCCNC(=N)N)CC2(C[S+]([O-])CC(C(=O)O)NC(=O)CNC(=O)CNC2=O)NC(=O)[C@H](C(C)C)NC1=O` (stereo not given in full), for which the result in assay [1], in [3], in assay [4], in assay [5], in assay [7] and in assay [10] was Active. The MIC in assay [2] came out at 25.6 µM (≈ 22.6 µg/mL); in assay [9] it was 51.2 µM (≈ 45.2 µg/mL); in [12] it was 0.35 µM (≈ 0.309 µg/mL); in assay [13], 25.6 µM (≈ 22.6 µg/mL). For the same compound, the outcome in assay [6], in assay [8], in [11], in assay [14] and in assay [15] was inactive.
On to `C/C=C1/NC(=O)C(NC(=O)CNC(=O)CCCCCCCCCCCCNC(=N)N)CC2(CSCC(C(=O)O)NC(=O)CNC(=O)CNC2=O)NC(=O)[C@H]([C@@H](C)CC)NC1=O` (stereo not given in full), for which the outcome in [1], in assay [4], in assay [5], in assay [7] and in assay [10] was Active. Besides, the values for the MIC in assay [2], in assay [9] and in assay [13] were 25.6 µM (≈ 22.5 µg/mL), 51.2 µM (≈ 45.1 µg/mL) and 51.2 µM (≈ 45.1 µg/mL), respectively. The outcome in assay [8], in assay [11] and in assay [14] was inactive.
